Source: patent US11382848B2, “Compounds reducing malodour perception and the use thereof” (CHEMCOM S.A., priority 2017, dated 2022)

Target: T1, human olfactory receptor OR7D4 (Homo sapiens, UniProt Q8NG98)
T1 construct: transfected with a plasmid containing CRE-luciferase and a plasmid containing OR7D4; expressed in transfected cells; host or cells: HEK293T stably expressing olfactory chaperone proteins of the RTP family
T1 sequence (Q8NG98 1-312): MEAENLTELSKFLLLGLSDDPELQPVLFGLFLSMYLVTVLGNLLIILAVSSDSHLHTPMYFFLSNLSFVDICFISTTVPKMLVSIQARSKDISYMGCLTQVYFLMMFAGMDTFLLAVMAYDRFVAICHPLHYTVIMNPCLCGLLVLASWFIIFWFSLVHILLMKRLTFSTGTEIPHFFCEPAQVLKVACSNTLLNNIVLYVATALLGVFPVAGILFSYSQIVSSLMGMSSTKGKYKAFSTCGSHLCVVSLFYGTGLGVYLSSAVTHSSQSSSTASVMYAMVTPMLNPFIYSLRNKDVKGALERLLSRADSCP
Test: OR7D4 luciferase gene reporter assay (antagonism of agonist-induced activation)
Format: cell-based
Conditions: dose-response, luciferase assay; half decrease of the luciferase production obtained without antagonist; androstenone at 31.6 micromolar
Method: Cells were maintained in minimal essential medium (EMEM, Lonza) containing 10% fetal bovine serum (M10). HEK293T stably expressing olfactory chaperone proteins from the RTP family as described in WO 2006/002161 (introduced here as a reference) were generated by transfecting HEK293T cells with expression vector containing the chaperone gene sequences and a resistance gene to puromycin, using Lipofectamine 2000. A recombinant cell population was selected by adding 10 μg/ml of puromycin into the culture medium. Monoclonal populations were further obtained by limit dilution procedure. Briefly, a cell suspension was diluted to contain 1 cell per ml and this dilution was dispatched in poly-D-lysine-coated 96 well plates (200 μl of dilution per well). After 5 days of culture, the presence and number of cell colonies per well was checked under a phase contrast microscope. After 5 additional days of culture, wells containing a single colony were harvested and each collected population was amplified independently.
The 5-alpha-androst-16-ene-3-one, used as an agonist of the human olfactory receptor OR7D4 and the tested molecules were diluted at a concentration of 1 mole/litre (M) into dimethyl sulfoxide (DMSO) to generate stock solutions.
For concentration-response analysis, serial dilutions of the tested molecules were prepared from stock solutions in EMEM plated into 96-well plates.
Briefly, cells were plated on poly-D-lysine-coated 96-well plates (BD Bioscience, Erembodegem-Dorp, Belgium) and transfected with a plasmid containing CRE-luciferase and a plasmid containing OR7D4. Sixteen hours after transfection, the culture medium was replaced by serum-free EMEM containing the tested ligands at a determined concentration. After four hours of incubation at 37° C. degree, cells were lysed and processed for luminescence measurement according to the manufacturer's protocols. Luminescence emission was recorded on a Spectra Max M5 reader (Molecular Devices, Sunnyvale, Calif.). Results were expressed as percentage of the response induced by 10 μM of the adenylate cyclase activator Forskolin.
The ability of the compounds of the invention to inhibit the activity of androstenone on OR7D4 receptor was assessed by the luciferase assay described above.
To determine whether a molecule antagonizes OR7D4, this compound was introduced in the incubation medium of the Luciferase assay described above at a concentration of either 316 μM, 100 μM or 31.6 μM, along with the known activator of the receptor 5α-androst-16-en-3-one at a concentration of 31.6 μM. Molecules were considered as “hits” i.e., as having an antagonist effect on the receptor, if they induced a decrease of at least 50% of the luciferase production elicited upon activation of OR7D4 by 5α-androst-16-en-3-one.
Putative antagonist molecule libraries containing compound 1 and other types of molecules were used to identify antagonist of the receptor OR7D4. The screening campaign was performed on the OR7D4 with a series of 112 putative antagonist molecules. In this screening campaign, compound 1 was identified as a hit.
The compound 1 was further confirmed as antagonist of OR7D4 by performing dose-response analysis using the luciferase assay. Different concentrations of compound 1, ranging from 31.6 nM to 1 mM were tested on HEK293 cell expressing OR7D4 and stimulated with 31.6 μM of 5α-androst-16-en-3-one.
The antagonistic property of compound 1 on OR7D4 was further confirmed by measuring the response of the OR7D4 to 5α-androsta-4,16-dien-3-one in presence of compound 1, using the luciferase assay as describe hereinabove. The observed inhibition was in the same range as the one observed when stimulating the receptor with 5α-androst-16-en-3-one.
To further explore the antagonism on OR7D4, a series of compounds structurally related to compound 1 were synthesized and assessed as antagonists of OR7D4 by dose-response analysis using the luciferase assay. […]

Row | Molecule | IC50 [µM]
1 | CCCCCCC(=C\c1ccc(C#N)cc1)/C=C(\C)C(=O)O [Compound 19, (E)-4-((E)-4-cyanobenzylidene)-2-methyldec-2-enoic Acid] | 45
2 | CCCCCCC(=C\c1ccc(C#N)cc1)/C=C(\C)C(=O)OCC [Compound 7, ethyl (E)-4-((E)-4-cyanobenzylidene)-2-methyldec-2-enoate] | 13
3 | CCCCCCC(/C=C/C(=O)OCC)=C\c1ccccc1 [Compound 13] | 7
4 | CCOc1ccccc1/C=C(/C=C(\C)C(=O)O)CC [Compound 20] | 32
5 | CCCCCCC(/C=C/C(=O)OCC)=C\c1ccc(F)cc1 [Compound 5, ethyl (E)-4-((E)-4-fluorobenzylidene)dec-2-enoate] | 14
6 | CCOC(=O)/C(C)=C/C(=C/c1ccccc1)C(C)CC(C)(C)C (stereo not drawn) [Compound 11] | 8
7 | CCCC(/C=C/C(=O)OCC)=C\c1ccccc1 [Compound 15] | 85
8 | CCOC(=O)/C(C)=C/C(=C/c1ccccc1)CC1CCCC1 [Compound 12] | 8
9 | C=CCCCCC(=C\c1ccccc1)/C=C(\C)C(=O)OCC [Compound 8] | 1
10 | CCCCCCC(/C=C(\C)C#N)=C\c1ccccc1 [Compound 17] | 12
11 | CCOC(=O)/C(C)=C/C=C/c1cccc(OC)c1 [Compound 2, ethyl (2E,4E)-5-(3-methoxyphenyl)-2-methylpenta-2,4-dienoate] | 25
12 | CCCCCc1ccccc1/C=C/C=C/C(=O)OCC [Compound 4, ethyl (2E,4E)-5-(2-pentylphenyl)penta-2,4-dienoate] | 16
13 | CCCc1ccccc1/C=C/C=C/C(=O)OCC [Compound 3, ethyl (2E,4E)-5-(2-propylphenyl)penta-2,4-dienoate] | 50
14 | CCCCCCC(/C=C/C(=O)OC)=C\c1ccccc1 [Compound 10] | 2
15 | CCCCCCC(/C=C/C#N)=C\c1ccccc1 [Compound 16, 4-benzylidenedec-2-enenitrile] | 8
16 | CCOC(=O)/C(C)=C/C(=C/c1ccccc1OCC)CC [Compound 6, ethyl (E)-4-((E)-2-ethoxybenzylidene)-2-methylhex-2-enoate] | 25
17 | CCCCCC(/C=C/C(=O)OCC)=C\c1ccccc1 [Compound 14] | 14

Results, then the molecule that gave them:

Row | IC50 [µM] | Molecule
18 | 126 | CCc1cccc(/C=C(C)/C=C/C(=O)N(C)C)c1 [Compound 25, (2E,4E)-5-(3-ethylphenyl)-N,N,4-trimethylpenta-2,4-dienamide]
19 | 126 | CCCc1ccccc1/C=C/C=C/C=O [Compound 37, (2E,4E)-5-(2-propylphenyl)penta-2,4-dienal]
20 | 2 | CCCCCCC(=C\c1ccccc1)/C=C(\C)C(=O)N(C)C [Compound 28, (E)-4-((E)-benzylidene)-N,N,2-trimethyldec-2-enamide]
21 | 126 | CCCCCCC(/C=C(\C)COCC)=C\c1ccccc1 [Compound 43, ((E)-2-((E)-3-ethoxy-2-methylprop-1-en-1-yl)oct-1-en-1-yl)benzene]
22 | 19 | CCCCCC(/C=C(\C)CO)=C\c1ccccc1 [Compound 34]
23 | 6 | CCCCCCC(/C=C/C=O)=C\c1ccccc1 [Compound 39, (E)-4-((E)-benzylidene)dec-2-enal]
24 | 62 | CCCCCCC(=C\c1ccccc1)/C=C(\C)C(=O)O [Compound 21, 4-benzylidene-2-methyldec-2-enoic Acid]
25 | 79 | COc1cccc(/C=C/C=C(\C)C=O)c1 [Compound 36, (2E,4E)-5-(3-methoxyphenyl)-2-methylpenta-2,4-dienal]
26 | 6 | CCCCCCC(/C=C/C(C)=O)=C\c1ccccc1 [Compound 30, (E)-5-((E)-benzylidene)undec-3-en-2-one]
27 | 25 | CCCCCCC(/C=C(\C)COC)=C\c1ccccc1 [Compound 42, ((E)-2-((E)-3-methoxy-2-methylprop-1-en-1-yl)oct-1-en-1-yl)benzene]
28 | 1 | CCCCCCC(=C\c1ccccc1)/C=C(\C)C(C)=O [Compound 29, 5-benzylidene-3-methylundec-3-en-2-one]
29 | 18 | CCCCCCC(/C=C/CO)=C\c1ccc(F)cc1 [Compound 33, (E)-4-((E)-4-fluorobenzylidene)dec-2-en-1-ol]
30 | 25 | CCCCCC(/C=C/C(=O)OC)=C\c1ccc(F)cc1 [Compound 46, methyl (2E,4E)-4-(4-fluorobenzylidene)-2-nonenoate]
31 | 126 | CCCc1ccccc1/C=C/C=C/CO [Compound 32, (2E,4E)-5-(2-propylphenyl)penta-2,4-dien-1-ol]
32 | 1 | CCCCCCC(=C\c1ccccc1)/C=C(\C)C(N)=O [Compound 23, (E)-4-((E)-benzylidene)-2-methyldec-2-enamide]
33 | 4 | CCCCCC(/C=C/C(=O)OCC)=C\c1ccc(F)cc1 [Compound 45, ethyl (E)-4-((E)-4-fluorobenzylidene)non-2-enoate]
34 | 75 | CCCCCCC(/C=C/C(=O)O)=C\c1ccccc1 [Compound 22]
35 | 29 | CCCCCC(/C=C(\C)C=O)=C\c1ccccc1 [Compound 40]
36 | 63 | COc1cccc(/C=C/C=C(\C)CO)c1 [Compound 31, (2E,4E)-5-(3-methoxyphenyl)-2-methylpenta-2,4-dien-1-ol]
37 | 53 | CCCC(/C=C(\C)CO)=C\c1ccccc1 [Compound 35]
38 | 2 | CCCCCCC(=C\c1ccccc1)/C=C(\C)C(=O)NC [Compound 24, (E)-4-((E)-benzylidene)-N,2-dimethyldec-2-enamide]
39 | 22 | CCCCCCC(/C=C(\C)COCC)=C\c1ccc(F)cc1 [Compound 44, 1-((E)-2-((E)-3-ethoxy-2-methylprop-1-en-1-yl)oct-1-en-1-yl)-4-fluorobenzene]
40 | 25 | (E)-4-((E)-4-fluorobenzylidene)dec-2-enal [Compound 38]
41 | 187 | CCCC(/C=C(\C)C=O)=C\c1ccccc1 [Compound 41]
42 | 14 | CCCCCCC(/C=C/C(N)=O)=C\c1ccccc1 [Compound 27]
